Assay results published in patent US20130244999A1, “Substituted Heterocyclic Compounds” (Incyte Corporation, priority 2008, published 2013).

biological target: T1, histamine H4 receptor (Homo sapiens, UniProt Q9H3N8); assay: Inhibition of histamine H4 receptor (Table A1; H4 membrane binding assay); details: not given
T1 construct: expressed in transfected cells; host or cells: HEK293SFM cells (membrane preparation)
Procedure, shortened: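 Membranes came from recombinant HEK293SFM cells expressing human H4, homogenized in 50 mM Tris-HCl pH 7.5 with protease inhibitors. Nonspecific binding was set with 1000× unlabeled ligand. Bound radioligand was separated on PEI-treated GF/B filters and counted by liquid scintillation.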

| inhibition at 1 µM | Compound |
| --- | --- |
| 35% | CN1CCN(c2cc(N3CCc4ccc(-c5cnc(N6CCN(C(=O)OC(C)(C)C)CC6)nc5)cc4C3)nc(N)n2)CC1 [Example 8, tert-Butyl 4-(5-{2-[2-amino-6-(4-methylpiperazin-1-yl)pyrimidin-4-yl]-1,2,3,4-tetrahydroisoquinolin-7-yl}pyrimidin-2-yl)piperazine-1-carboxylate] |

same assay, conditions: histamine H4 receptor; "> a" = exceeds experiment limit

| Compound | IC50 |
| --- | --- |
| CNC(=O)c1ccc(-c2ccc3c(c2)CN(c2cc(N4CCN(C)CC4)nc(N)n2)CC3)cn1 [Example 2, 5-{2-[2-Amino-6-(4-methylpiperazin-1-yl)pyrimidin-4-yl]-1,2,3,4-tetrahydroisaquinolin-7-yl}-N-methylpyridine-2-carboxamide] | 20 nM |
| CN1CCN(c2cc(-c3ccc4c(c3)CN(c3cc(N5CCN(C)CC5)nc(N)n3)CC4)ccn2)CC1 [Example 5, 4-(4-Methylpiperazin-1-yl)-6-[7-[2-(4-methylpiperazin-1-yl)pyridin-4-yl]-3,4-dihydroisoquinolin-2(1H)-yl]pyrimidin-2-amine] | 128 nM |
| CN1CCN(c2cc(N3CCc4ccc(-c5cnc(C#N)c(F)c5)cc4C3)nc(N)n2)CC1 [Example 7, 5-{2-[2-Amino-6-(4-methylpiperazin-1-yl)pyrimidin-4-yl]-1,2,3,4-tetrahydroisoquinolin-7-yl}-3-fluoropyridine-2-carbonitrile] | 76 nM |
| CN1CCN(c2cc(N3CCc4ccc(-c5cnc(N6CCN(C(=O)OC(C)(C)C)CC6)nc5)cc4C3)nc(N)n2)CC1 [Example 8, tert-Butyl 4-(5-{2-[2-amino-6-(4-methylpiperazin-1-yl)pyrimidin-4-yl]-1,2,3,4-tetrahydroisoquinolin-7-yl}pyrimidin-2-yl)piperazine-1-carboxylate] | > 1000 nM |
| CN1CCN(c2cc(N3CCc4ccc(-c5cnc(N6CCNCC6)nc5)cc4C3)nc(N)n2)CC1 [Example 9, 4-(4-Methylpiperazin-1-yl)-6-[7-(2-piperazin-1-yipyrimidin-5-yl)-3,4-dihydroisoquinolin-2(1H)-yl]pyrimidin-2-amine] | 89 nM |
| CCOc1ccc(Cn2cc(-c3ccc4c(c3)CN(c3cc(N5CCN(C)CC5)nc(N)n3)CC4)cn2)cn1 [Example 10, 4-[7-{1-[(6-Ethoxypyridin-3-yl)methyl]-1H-pyrazol-4-yl}-3,4-dihydroisoquinolin-2(1H)-yl]-6-(4-methylpiperazin-1-yl)pyrimidin-2-amine] | 102 nM |
| CN1CCN(c2cc(N3CCc4ccc(-c5cnn(C6(CC#N)CCCC6)c5)cc4C3)nc(N)n2)CC1 [Example 11, [1-(4-{2-[2-Amino-6-(4-methylpiperazin-1-yl)pyrimidin-4-yl]-1,2,3,4-tetrahydroisoquinolin-7-yl}-1,1-pyrazol-1-yl)cyclopentyl]acetonitrile] | 110 nM |
| CN1CCN(c2cc(N3CCc4ccc(-c5cnn(C6CCN(C(=O)OC(C)(C)C)CC6)c5)cc4C3)nc(N)n2)CC1 [Example 12, tert-Butyl 4-(4-{2-[2-amino-6-(4-methylpiperazin-1-yl)pyrimidin-4-yl]-1,2,3,4-tetrahydroisoquinolin-7-yl}-1H-pyrazol-1-yl)piperidine-1-carboxylate] | 489 nM |
| CN1CCN(c2cc(N3CCc4ccc(-c5cnn(C6CCNCC6)c5)cc4C3)nc(N)n2)CC1 [Example 13, 4-(4-Methylpiperazin-1-yl)-6-[7-(1-piperidin-4-yl-1H-pyrazol-4-yl)-3,4-dihydroisoquinolin-2 (1H)-yl]pyrimidin-2-amine] | 35 nM |
| CN1CCN(c2cc(N3CCc4ccc(-c5ccc(C(=O)NCc6ccccn6)nc5)cc4C3)nc(N)n2)CC1 [Example 18, 5-{2-[2-Amino-6-(4-methylpiperazin-1-yl)pyrimidin-4-yl]-1,2,3,4-tetrahydroisoquinolin-7-yl}-N-(pyridin-2-ylmethyl)pyridine-2-carboxamide] | 65 nM |
| CN1CCN(c2cc(N3CCc4ccc(-c5ccc(C(=O)NCC(C)(C)O)nc5)cc4C3)nc(N)n2)CC1 [Example 19, 5-{2-[2-Amino-6-(4-methylpiperazin-1-yl)pyrimidin-4-yl]-1,2,3,4-tetrahydroisoquinolin-7-yl}-N-(2-hydroxy-2-methylpropyl)pyridine-2-carboxamide] | 110 nM |
| CN1CCN(c2cc(N3CCc4ccc(-c5ccc(C(=O)N[C@H]6CC[C@H](O)CC6)nc5)cc4C3)nc(N)n2)CC1 [Example 20, 5-{2-[2-Amino-6-(4-methylpiperazin-1-yl)pyrimidin-4-yl]-1,2,3,4-tetrahydroisoquinolin-7-yl}-N-(trans-4-hydroxycyclohexyl)pyridine-2-carboxamide] | 113 nM |
| CN1CCN(c2cc(N3CCc4ccc(Oc5ccc(C#N)c(Cl)c5)cc4C3)nc(N)n2)CC1 [Example 22, 4-({2-[2-Amino-6-(4-methylpiperazin-1-yl)pyrimidin-4-yl]-1,2,3,4-tetrahydroisoquinolin-7-yl}oxy)-2-chlorobenzonitrile] | 367 nM |

Continued, values first:

| IC50 | Compound |
| --- | --- |
| 39 nM | CN1CCN(c2cc(N3CCc4ccc(Br)cc4C3)nc(N)n2)CC1 [Example 1, 4-(7-Bromo-3,4-dihydroisoquinolin-2(1H)-yl)-6-(4-methylpiperazin-1-yl)pyrimidin-2-amine] |
| 31 nM | CC(=O)Nc1ccc(-c2ccc3c(c2)CN(c2cc(N4CCN(C)CC4)nc(N)n2)CC3)cn1 [Example 3, N-(5-{2-[2-Amino-6-(4-methylpiperazin-1-yl)pyrimidin-4-yl]-1,2,3,4-tetrahydroisoquinolin-7-yl}pyridin-2-yl)acetamide] |
| 80 nM | CN1CCN(c2cc(N3CCc4ccc(-c5cnn(C)c5)cc4C3)nc(N)n2)CC1 [Example 4, 4-(4-Methylpiperazin-1-yl)-6-[7-(1-methyl-1H-pyrazol-4-yl)-3,4-dihydroisoquinolin-2(1H)-yl]pyrimidin-2-amine] |
| 61 nM | CN1CCN(c2cc(N3CCc4ccc(-c5cnc(Cl)c(F)c5)cc4C3)nc(N)n2)CC1 [Example 6, 4-[7-(6-Chloro-5-fluoropyridin-3-yl)-3,4-dihydroisoquinolin-2(1H)-yl]-6-(4-methylpiperazin-1-yl)pyrimidin-2-amine] |
| 223 nM | CN1CCN(c2cc(N3CCc4ccc(-n5cc(Cl)cn5)cc4C3)nc(N)n2)CC1 [Example 14, 4-[7-(4-Chloro-1,1-pyrazol-1-yl)-3,4-dihydroisoquinolin-2(1H)-yl]-6-(4-methylpiperazin-1-yl)pyrimidin-2-amine] |
| 145 nM | CN1CCN(c2cc(N3Cc4ccccc4C[C@H]3CO)nc(N)n2)CC1 [Example 15, {(3S)-2-[2-Amino-6-(4-methylpiperazin-1-yl)pyrimidin-4-yl]-1,2,3,4-tetrahydroisoquinolin-3-yl}methanol] |
| 543 nM | Cc1cccc(Nc2ccc3c(c2)CN(c2cc(N4CCN(C)CC4)nc(N)n2)CC3)n1 [Example 16, 2-[2-Amino-6-(4-methylpiperazin-1-yl)pyrimidin-4-yl]-N-(6-methylpyridin-2-yl)-1,2,3,4-tetrahydroisoquinolin-7-amine] |
| 285 nM | CN1CCN(c2cc(N3CCc4ccc(Oc5ccccc5Cl)cc4C3)nc(N)n2)CC1 [Example 17, 4-[7-(2-Chlorophenoxy)-3,4-dihydroisoquinolin-2(1H)-yl]-6-(4-methylpiperazin-1-yl)pyrimidin-2-amine] |
| 181 nM | CN1CCN(c2cc(N3CCCc4ccc(O)cc43)nc(N)n2)CC1 [Example 21, 1-[2-Amino-6-(4-methylpiperazin-1-yl)pyrimidin-4-yl]-1,2,3,4-tetrahydroquinolin-7-ol] |
| 158 nM | CN1CCN(c2cc(N3Cc4ccccc4CC3=O)nc(N)n2)CC1 [Example 23, 2-[2-Amino-6-(4-methylpiperazin-1-yl)pyrimidin-4-yl]-1,4-dihydroisoquinolin-3(2H)-one] |
